Activity calls are given as the source filed them. The calls are words filed in the database; no cut-off is given here.
How the values were obtained:
[1] = molecular target: T1, Glycine receptor subunit alpha-2 (Rattus norvegicus) (UniProt P22771); assay: Inhibition of rat alpha2 homomeric glycine receptor expressed in CHO cells assessed as inhibition of 300 uM glycine-elicited current at 300 uM by outside patch clamp technique
T1 sequence (whole entry): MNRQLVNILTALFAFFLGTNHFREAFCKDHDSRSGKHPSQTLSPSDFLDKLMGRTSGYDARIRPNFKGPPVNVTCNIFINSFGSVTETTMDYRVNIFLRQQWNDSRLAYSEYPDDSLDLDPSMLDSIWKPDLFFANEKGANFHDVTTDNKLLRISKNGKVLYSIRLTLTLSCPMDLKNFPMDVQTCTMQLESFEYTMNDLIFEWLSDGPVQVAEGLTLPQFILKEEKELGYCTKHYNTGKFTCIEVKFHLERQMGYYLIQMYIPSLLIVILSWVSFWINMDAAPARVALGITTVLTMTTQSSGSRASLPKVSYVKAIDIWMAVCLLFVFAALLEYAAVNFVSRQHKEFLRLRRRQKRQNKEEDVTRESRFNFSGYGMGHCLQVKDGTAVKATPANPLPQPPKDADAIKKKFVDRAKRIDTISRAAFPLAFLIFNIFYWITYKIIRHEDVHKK

[2] = molecular target: T1, Glycine receptor subunit alpha-2 (Rattus norvegicus); assay: Inhibition of rat alpha2 homomeric glycine receptor expressed in CHO cells assessed as inhibition of 300 uM glycine-elicited current at 100 uM at +50 mV voltage by outside patch clamp technique; format: cell-based
[3] = molecular target: T1, Glycine receptor subunit alpha-2 (Rattus norvegicus); assay: Effect on rat alpha2 homomeric glycine receptor expressed in CHO cells assessed as shortened deactivation phase of glycine-evoked response at 100 uM administered before glycine challenge by outside patch clamp technique; format: cell-based
[4] = molecular target: T1, Glycine receptor subunit alpha-2 (Rattus norvegicus); assay: Effect on rat alpha2 homomeric glycine receptor expressed in CHO cells assessed as change in relative area of rising time constant of glycine response at 300 uM by outside patch clamp technique; format: cell-based
[5] = molecular target: T1, Glycine receptor subunit alpha-2 (Rattus norvegicus); assay: Effect on rat alpha2 homomeric glycine receptor expressed in CHO cells assessed as shortened single receptor burst opening in response to glycine-pulse at 30 uM by outside patch clamp technique; format: cell-based
[6] = molecular target: T1, Glycine receptor subunit alpha-2 (Rattus norvegicus); assay: Effect on rat alpha2 homomeric glycine receptor expressed in CHO cells assessed as decrease in activation phase of glycine response at 30 uM by outside patch clamp technique; format: cell-based
[7] = molecular target: T2, Glycine receptor subunit alpha-2 (Rattus norvegicus, UniProt P22771); assay: Inhibition of rat alpha2 homomeric glycine receptor expressed in CHO cells assessed as inhibition of 300 uM glycine-elicited current by outside patch clamp technique; format: cell-based
T2 sequence (P22771 whole entry): T1 sequence (whole entry)

[8] = molecular target: T1, Glycine receptor subunit alpha-2 (Rattus norvegicus); assay: Inhibition of rat alpha2 homomeric glycine receptor expressed in CHO cells assessed as inhibition of 300 uM glycine-elicited current at 100 uM at -50 mV voltage by outside patch clamp technique; format: cell-based
[9] = molecular target: T1, Glycine receptor subunit alpha-2 (Rattus norvegicus); assay: Effect on rat alpha2 homomeric glycine receptor expressed in CHO cells assessed as change in rising time constant of glycine response at 300 uM by outside patch clamp technique; format: cell-based
[10] = molecular target: T1, Glycine receptor subunit alpha-2 (Rattus norvegicus); assay: Inhibition of rat alpha2 homomeric glycine receptor expressed in CHO cells assessed as inhibition of 300 uM glycine-elicited current at 3 uM by outside patch clamp technique; format: cell-based
[11] = molecular target: T1, Glycine receptor subunit alpha-2 (Rattus norvegicus); assay: Effect on rat alpha2 homomeric glycine receptor expressed in CHO cells assessed as decrease in channel mean open time by outside patch clamp technique relative to control; format: cell-based
[12] = molecular target: T1, Glycine receptor subunit alpha-2 (Rattus norvegicus); assay: Inhibition of rat alpha2 homomeric glycine receptor expressed in CHO cells assessed as inhibition of 30 mM glycine-elicited current at 300 uM by outside patch clamp technique
[13] = molecular target: T1, Glycine receptor subunit alpha-2 (Rattus norvegicus); assay: Effect on rat alpha2 homomeric glycine receptor expressed in CHO cells assessed as decrease in channel mean open time at 30 uM by outside patch clamp technique relative to control; format: cell-based
[14] = molecular target: T1, Glycine receptor subunit alpha-2 (Rattus norvegicus); assay: Inhibition of rat alpha2 homomeric glycine receptor expressed in CHO cells assessed as inhibition of deactivation time constant by outside patch clamp technique; format: cell-based
[15] = molecular target: T1, Glycine receptor subunit alpha-2 (Rattus norvegicus); assay: Effect on rat alpha2 homomeric glycine receptor expressed in CHO cells assessed as flickering of channel in response to glycine-pulse at 30 uM by outside patch clamp technique; format: cell-based
[16] = molecular target: T1, Glycine receptor subunit alpha-2 (Rattus norvegicus); assay: Effect on rat alpha2 homomeric glycine receptor expressed in CHO cells assessed as glycine-evoked response at 100 uM administered before glycine challenge by outside patch clamp technique; format: cell-based
[17] = molecular target: T1, Glycine receptor subunit alpha-2 (Rattus norvegicus); assay: Inhibition of rat alpha2 homomeric glycine receptor expressed in CHO cells assessed as inhibition of 300 uM glycine-elicited current at 10 uM by outside patch clamp technique; format: cell-based
[18] = molecular target: T1, Glycine receptor subunit alpha-2 (Rattus norvegicus); assay: Effect on rat alpha2 homomeric glycine receptor expressed in CHO cells assessed as decrease in channel mean open time at 10 uM by outside patch clamp technique relative to control; format: cell-based
[19] = molecular target: T1, Glycine receptor subunit alpha-2 (Rattus norvegicus); assay: Effect on rat alpha2 homomeric glycine receptor expressed in CHO cells assessed as shortened deactivation phase of glycine-evoked response at 10 uM administered before glycine challenge by outside patch clamp technique; format: cell-based
[20] = molecular target: T1, Glycine receptor subunit alpha-2 (Rattus norvegicus); assay: Inhibition of rat alpha2 homomeric glycine receptor expressed in CHO cells assessed as inhibition of 30 mM glycine-elicited current at 10 uM by outside patch clamp technique
[21] = molecular target: T1, Glycine receptor subunit alpha-2 (Rattus norvegicus); assay: Effect on rat alpha2 homomeric glycine receptor expressed in CHO cells assessed as glycine-evoked response at 10 uM administered before glycine challenge by outside patch clamp technique; format: cell-based
[22] = molecular target: T1, Glycine receptor subunit alpha-2 (Rattus norvegicus); assay: (§1) Inhibition of rat alpha2 homomeric glycine receptor expressed in CHO cells assessed as inhibition of 300 uM glycine-elicited current at 3 uM at +50 mV voltage by outside patch clamp technique; format: cell-based
[23] = molecular target: T1, Glycine receptor subunit alpha-2 (Rattus norvegicus); assay: Effect on rat alpha2 homomeric glycine receptor expressed in CHO cells assessed as change in relative area of rising time constant of glycine response at 10 uM by outside patch clamp technique; format: cell-based
[24] = molecular target: T1, Glycine receptor subunit alpha-2 (Rattus norvegicus); assay: Effect on rat alpha2 homomeric glycine receptor expressed in CHO cells assessed as decrease in glycine-evoked recovery time constant at 10 uM by outside patch clamp technique; format: cell-based
[25] = molecular target: T1, Glycine receptor subunit alpha-2 (Rattus norvegicus); assay: Effect on rat alpha2 homomeric glycine receptor expressed in CHO cells assessed as decrease in activation phase of glycine response at 10 uM by outside patch clamp technique; format: cell-based
[26] = molecular target: T1, Glycine receptor subunit alpha-2 (Rattus norvegicus); assay: as §1; format: cell-based; remark: listed apart in the source
[27] = molecular target: T1, Glycine receptor subunit alpha-2 (Rattus norvegicus); assay: Effect on rat alpha2 homomeric glycine receptor expressed in CHO cells assessed as change in rising time constant of glycine response at 10 uM by outside patch clamp technique; format: cell-based
[28] = molecular target: T1, Glycine receptor subunit alpha-2 (Rattus norvegicus); assay: Effect on rat alpha2 homomeric glycine receptor expressed in CHO cells assessed as shortened single receptor burst opening in response to glycine-pulse at 10 uM by outside patch clamp technique; format: cell-based

For CC(C)(O)[C@@H]1[C@H]2OC(=O)[C@@H]1[C@]1(O)C[C@H]3O[C@]34C(=O)O[C@H]2[C@]14C [PICROTIN], the inhibition [1] was 63.7%, the Activity [2] was “Active” and the Activity [3] was “Active”. The Activity [4] was 8.9%, the Activity [5] was “Active” and the Activity [6] was “Active”. The IC50 [7] was 117 µM, the Activity [8] was “Active” and the Activity [9] was 91.1%. For the same molecule, the inhibition [10] was 3.4%, the Activity [11] was “Dose-dependent effect” and the inhibition [12] was 36.3%. The Activity [13] was 2.9 ms, the Activity [14] was “Dose-dependent effect” and the Activity [15] was “Active”. For the same molecule, the Activity [16] was “Active”.

In the case of C=C(C)[C@@H]1[C@H]2OC(=O)[C@@H]1[C@]1(O)C[C@H]3O[C@]34C(=O)O[C@H]2[C@]14C [PICROTOXININ], the inhibition [17] is reported as 78.9%, the Activity [18] is reported as 9.3 ms and the Activity [19] is reported as “Active”. The IC50 [7] was 2.4 µM, the inhibition [20] was 47.4% and the Activity [21] was “Active”. The Activity [22] was “Active”, the inhibition [10] was 50% and the Activity [11] was “Dose-dependent effect”. For the same molecule, the Activity [23] was 19%, the Activity [24] was 17.6 ms and the Activity [25] was “Active”. For the same molecule, the Activity [26] was “Active”, the Activity [14] was “Dose-dependent effect” and the Activity [27] was 81%. The Activity [28] was “Active”.
